Laboratory results from patent publication US8404790B2, “Aqueous emulsion polymerization process for producing fluoropolymers” (3M Innovative Properties Company, priority 2005, dated 2013).

Test: Determination of bio-accumulation: urinary clearance pharmacokinetic study in rats
Details: oral gavage
Method: The fluorinated surfactants were evaluated for urinary clearance using a pharmacokinetic study in rats. The goal was to measure the total amount of parent compound eliminated via urinary output and estimate the rate of elimination.
The study utilized male Sprague Dawley rats, 6 to 8 weeks of age, and approximately 200 to 250 g body weight at study onset. The test compounds of table 2 were administered at a dose of 73 micromoles per kg body weight in rats (N=3 animals per tested compound). All test compounds were prepared in sterile deionized water and given to rats via oral gavage. After test compounds administration, the rats were housed individually in metabolism cages for urine collection: 0 to 6 hours, 6 to 24 hours, 24 to 48 hours and 72 to 96 hours. Animals were observed throughout the study for clinical signs of toxicity. Gross necropsy was performed at the termination of each study (96 hours post-dose) with sera and liver samples being retained from each animal
The concentration of the parent compound or metabolites thereof were quantitatively measured via fluorine NMR on each urine sample for each animal at each time point based on internally added standards.

O=C(O)C(F)(F)OC(F)(F)OC(F)(F)OC(F)(F)OC(F)(F)F [Compound 1, perfluoro-3,5,7,9-tetraoxadecanoic acid (CF3—(OCF2)4—COOH)]
T½ (renal elimination half-life) (73 micromoles per kg body weight, urine, fluorine NMR, exponential least squares curve fitting): 15 h | % Recovery (96 h) (73 micromoles per kg, recovery of administered amount in urine after 96 h): 50%
